pEC50: −log10 of the molar value. Structures can show the parent of a compound that is named as a salt.
Biological target: T1, serotonin 4 receptor (5-HT4) (Cavia porcellus, UniProt O70528)
T1 construct: from tissue; host or cells: longitudinal muscle strips of guinea pig ileum (Harley guinea pigs)
Test: Stimulating activity on serotonin 4 receptor (twitch response in guinea pig ileum)
Assay type: cell-based
Details: not given
Experimental: Stimulating activity on serotonin 4 receptor
From Harley guinea pigs weighing 250 to 400 g, a section of ileum 10 to 20 cm proximal to the ileocecal junction was removed. Longitudinal muscle strips obtained from the ileum were used for this assay. The preparations were suspended in Krebs' solution at 32 to 34° C., bubbled continuously with 95% O2 and 5% CO2, and subjected to initial tension of about 0.8 g. Responses were recorded isometrically. Twitch responses were evoked by electrical stimulation (0.2 Hz, 1 msec pulse duration). The preparations were stimulated at supramaximal voltage for 2 to 3 hours, and were then allowed to equilibrate for about 1 hour at submaximal voltage. […] The preparations were left for at least 45 minutes before cumulative addition of each agonist.
The quinolinecarboxylic acid derivatives of the present invention were employed as sample compounds. For comparison, the following compounds were employed. These compounds were diluted by dissolving them in distilled water or in DMSO.
The data obtained was analyzed by RS1 (BBN Software Product Co.).

T1 sequence (O70528 whole entry): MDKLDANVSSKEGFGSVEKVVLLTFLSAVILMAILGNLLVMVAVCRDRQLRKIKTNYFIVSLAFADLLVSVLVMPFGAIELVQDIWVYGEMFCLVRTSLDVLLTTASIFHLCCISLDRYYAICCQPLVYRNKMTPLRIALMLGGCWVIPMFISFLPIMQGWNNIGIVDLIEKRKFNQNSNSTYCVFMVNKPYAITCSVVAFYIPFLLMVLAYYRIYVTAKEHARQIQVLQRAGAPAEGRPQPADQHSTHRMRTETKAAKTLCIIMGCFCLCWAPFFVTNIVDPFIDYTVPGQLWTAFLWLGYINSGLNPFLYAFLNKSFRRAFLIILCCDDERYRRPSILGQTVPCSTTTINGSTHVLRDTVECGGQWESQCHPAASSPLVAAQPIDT

SMILES	pEC50
CC(C)n1c(=O)c(C(=O)OC2CC3CCC(C2)N3CCO)cc2ccccc21 (stereo not drawn) [Compound 37, Endo-8-(2-hydroxyethyl)-8-azabicyclo[3.2.1]oct-3-yl 1-isopropyl-2-oxo-1,2-dihydro-3-quinolinecarboxylate hydrochloride]	7.79
CSCCN1C2CCC1CC(NC(=O)c1cc3ccccc3n(C(C)C)c1=O)C2 (stereo not drawn) [Compound 17, Endo-N-(8-(2-(methylthio)ethyl)-8-azabicyclo[3.2.1]oct-3-yl)-1-isopropyl-2-oxo-1,2-dihydro-3-quinolinecarboxamide]	7.32
CC(C)n1c(=O)c(C(=O)NC2CC3CCC(C2)N3CCC#N)cc2ccccc21 (stereo not drawn) [Compound 33, Endo-N-(8-(2-cyanoethyl)-8-azabicyclo[3.2.1]oct-3-yl)-1-isopropyl-2-oxo-1,2-dihydro-3-quinolinecarboxamide]	7.45
CC(C)n1c(=O)c(C(=O)OC2CC3CCC(C2)N3CCCCO)cc2ccccc21 (stereo not drawn) [Compound 39, Endo-8-(4-hydroxybutyl)-8-azabicyclo[3.2.1]oct-3-yl 1-isopropyl-2-oxo-1,2-dihydro-3-quinolinecarboxylate hydrochloride]	7.78
CC(C)n1c(=O)c(C(=O)NC2CC3CCC(C2)N3CCS(=O)(=O)c2ccccc2)cc2ccccc21 (stereo not drawn) [Compound 19, Endo-N-(8-(2-(phenylsulfonyl)ethyl)-8-azabicyclo[3.2.1]oct-3-yl)-1-isopropyl-2-oxo-1,2-dihydro-3-quinolinecarboxamide]	7.06
CC(C)n1c(=O)c(C(=O)NC2CC3CCC(C2)N3CCCC(=O)O)cc2ccccc21 (stereo not drawn) [Compound 28, Endo-N-(8-(3-carboxypropyl)-8-azabicyclo[3.2.1]oct-3-yl)-1-isopropyl-2-oxo-1,2-dihydro-3-quinolinecarboxamide]	7.04
CC(=O)CCCN1[C@@H]2CC[C@H]1C[C@@H](OC(=O)c1cc3ccccc3n(C(C)C)c1=O)C2 [Compound 53, Endo-8-(4-oxopentyl)-8-azabicyclo[3.2.1]oct-3-yl 1-isopropyl-2-oxo-1,2-dihydro-3-quinolinecarboxylate hydrochloride]	7.58
CC(C)n1c(=O)c(C(=O)NC2CC3CCC(C2)N3CC(=O)O)cc2ccccc21 (stereo not drawn) [Compound 26, Endo-N-(8-(carboxymethyl)-8-azabicyclo[3.2.1]oct-3-yl)-1-isopropyl-2-oxo-1,2-dihydro-3-quinolinecarboxamide]	7.18
CSCCN1[C@@H]2CC[C@H]1C[C@@H](OC(=O)c1cc3ccccc3n(C(C)C)c1=O)C2 [Compound 45, Endo-8-(2-(methylthio)ethyl)-8-azabicyclo[3.2.1]oct-3-yl 1-isopropyl-2-oxo-1,2-dihydro-3-quinolinecarboxylate]	7.53

Same assay, conditions: twitch response in guinea pig ileum; maximum contraction of sample compound = 100%; read-out: ED50 (concentration enhancing the twitch response by 50%)

SMILES	pEC50
CC(C)n1c(=O)c(C(=O)O[C@H]2C[C@H]3CC[C@@H](C2)N3c2nccs2)cc2ccccc21 [Compound 58, endo-8-(2-thiazolyl)-8-azabicyclo[3.2.1]oct-3-yl 1-isopropyl-2-oxo-1,2-dihydro-3-quinolinecarboxylate hydrochloride, reference compound]	5.94

From patent US5753673A, “Quinolinecarboxylic acid derivatives” (Taisho Pharmaceutical Co., Ltd., priority 1994, dated 1998)
